From article PMC4844702, “Selective inhibition of the kinase DYRK1A by targeting its folding process” (Nature Communications, 2016)
pIC50, pKi: −log10 of the molar value. Where two headings read alike, the source gives them in different places.

Legend:
[1] = molecular target: T1, human DYRK2 (Homo sapiens, UniProt Q92630); assay: RI-in vitro kinase assay with DYRKtide; type: biochemical; settings: DYRKtide substrate; Fig. 8b, n=4; read-out: IC50, kinase activity of recombinant DYRK2
T1 construct: His-tagged full-length human DYRK2 recombinant proteins; His; purchased Millipore
T1 sequence (Q92630 whole entry): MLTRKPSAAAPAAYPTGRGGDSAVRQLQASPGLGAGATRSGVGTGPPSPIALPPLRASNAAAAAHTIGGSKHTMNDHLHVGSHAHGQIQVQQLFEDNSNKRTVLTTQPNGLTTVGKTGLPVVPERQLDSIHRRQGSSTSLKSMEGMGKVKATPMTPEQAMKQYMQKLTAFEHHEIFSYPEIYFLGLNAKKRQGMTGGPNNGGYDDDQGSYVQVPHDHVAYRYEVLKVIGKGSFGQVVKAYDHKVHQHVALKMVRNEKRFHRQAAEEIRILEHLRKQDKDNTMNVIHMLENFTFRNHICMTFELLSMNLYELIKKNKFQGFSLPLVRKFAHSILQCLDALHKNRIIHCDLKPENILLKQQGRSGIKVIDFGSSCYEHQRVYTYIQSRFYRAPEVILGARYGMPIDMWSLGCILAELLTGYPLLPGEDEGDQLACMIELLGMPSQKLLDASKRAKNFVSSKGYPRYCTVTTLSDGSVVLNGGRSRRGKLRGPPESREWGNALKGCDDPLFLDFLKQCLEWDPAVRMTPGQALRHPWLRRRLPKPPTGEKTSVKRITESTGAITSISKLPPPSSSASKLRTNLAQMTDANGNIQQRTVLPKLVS

[2] = molecular target: T2, DYRK1A (Homo sapiens, UniProt Q13627); assay: SPHINKS assay: TAU (Thr212) phosphorylation by induced DYRK1A in HEK293 cells, western blot; type: cell-based; parameters: expressed in transfected cells; host or cells: Flp-In/T-REx HEK293
Protocol: TAU was expressed in a fused form with the destabilization domain FKBP12 (DD), which causes degradation of DD fusion proteins in the absence of a small molecule, Shield-1 (ref. [26]).
To distinguish kinase inhibition at the transitional state from that after maturation, we set up two types of time courses. […] Following additional incubation with Shield-1 for 2 h, total cell lysates were harvested, then subjected to western blot.
Cells were then cultured 24 h later in the presence of 1 μg ml^−1 of doxycycline (Nacalai Tesque) for 16 h, then treated with 1 μM of Shield-1 (Clontech, Takara Bio) for 2 h. Small molecules from our chemical library were diluted in 1 ml of DMEM and 1% FBS, then administered into the cells at a final concentration of 10 μM (0.1% DMSO), as illustrated in Fig. 1a. Total cell lysates were prepared with SDS-urea buffer (50 mM Tris-HCl, pH 7.0, 1% SDS, 4 M urea, 10% glycerol, 20 mM dithiothreitol, 0.5 mg ml^−1 BSA), then analysed with SDS–polyacrylamide gel electrophoresis (SDS–PAGE) followed by western blot analysis using antibodies against phospho-TAU (pT212) (1/3,000) and total TAU (1/3,000) proteins (Supplementary Fig. 14).
Category Parameter Description
Assay Type of assay Cell-based
Measurement Detection of TAU phosphorylation mediated by
Key reagents Rabbit polyclonal antibody against phosphorylated
Mouse monoclonal antibody against TAU (TAU-5)
ProteoTuner Shield System (Clontech Laboratories)
pcDNA5/FRT/TO vector and Flp-In/T-REx293 cells
Assay protocol Described in the sections "Methods" and "Results"
Library Library size Approximately 200
Library composition Synthetic chemical compounds, including derivatives
Source Laboratory of Chemical Bioscience, Institute of
Biomaterials and Bioengineering, Tokyo Medical and
Screen Format 6-well plates (FALCON) coated with polyethylenimine
Screen Concentration(s) tested 10 µM (0.1% DMSO) in DMEM with 1%FBS
Reagent/ compound dispensing system Manual
Detection instrument and software Western blot using primary anti-phospho- TAU and […]
Chemiluminescence of HRP was detected by the […]

[3] = molecular target: T3, 3xFLAG-DYRK1A / CDC37-nanoKAZ (Homo sapiens, UniProt Q13627); parameters: expressed in transfected cells; host or cells: 293T cells stably expressing CDC37-nanoKAZ; method as in PMID 26234946; settings: cited from earlier work
[4] = system: p-Ser97 of FLAG-DYRK1A; assay: p-Ser97 signal of FLAG-DYRK1A in HEK293 cells treated with phosphatase inhibitors; type: cell-based; settings: HEK293, with doxycycline 8 h
Excerpt: blotanalysisusing antibodies against p- Ser97 and FLAG. If Ser97 autophosphorylation were mediated by an intermolecular mechanism, then Ser97 of the kinase- dead K188R mutant would be phosphorylated when expressed in the presence of DD-FLAG-DYRK1A. However, in spite of the excess amount of DD- FLAG-DYRK1A, the phosphorylation of Ser97 in the kinase- dead mutant didnot increase compared toresults obtainedin the absence of DD- FLAG-DYRK1A.
Representative data from the triplicate experiments is shown.
(b) HEK293 cells harbouring the empty vector or the expression vector of DD -FLAG-DYRK1A with the bicistronic expression cassette of the kinase- dead FLAG- DYRK1A (K188R) and EGFP were incubated with Shield- 1 at the indicated concentrations for 16 h. After accumulation of DD- FLAG-DYRK1A, FLAG- DYRK1A (K188R) was expressed for 16 h in the presence of Shield- 1 and doxycycline. The kinase- dead FLAG- DYRK1A (K188R) didnot increase in the presence of DD- FLAG-DYRK1A, supporting the conclusion in (a).Representative data from the triplicate experiments is shown.
(c) p- Ser97 is susceptible to dephosphorylation in HEK293 cells. The HEK293 cells were treated with the indicated concentration of calyculin A, okadaic acid, and cantharidic acid in the presence of doxycycline for 8 h. The total cell lysates were subjected to immunoprecipitation using antibody against FLAG- tag. The immuno- precipitated FLAG- DYRK1A was detected using antibodies against p- Ser97 and FLAG- tag. […]
with cantharidic acid increased the p- Ser97 signal. In contrast, the treatment with calyculin A […]
which may indicate that calyculin A and okadaic acid inhibited dephosphorylation of other sites […]
phosphatases inhibited by these compounds have not been completely identified. Phosphatase(s) inhibited by cantharidic acid may play a role in dephosphorylation of p -Ser97 in the cells. […]
antibody- conjugated beads. […] Each protein was detected with the corresponding antibodies against p- Ser97 or FLAG. […]
(e) The band intensities in ( d) were quantified. […]

[5] = system: mature Drosophila DYRK2; parameters: method as in PMID 17188038; settings: cited from earlier work
[6] = system: transitional intermediate of Drosophila DYRK2; parameters: method as in PMID 17188038; settings: cited from earlier work
[7] = molecular target: T4, human DYRK1A kinase domain (Homo sapiens, UniProt Q13627); assay: RI-in vitro kinase assay with DYRKtide; type: biochemical; settings: for pIC50: DYRKtide substrate
T4 construct: His-tagged human DYRK1A kinase domain (residues 127–485) was produced in E. coli; His; made in house; host or cells: E. coli
Protocol: (§1) The RI-in vitro kinase assay was performed as described previously, with some modifications. […] GST-tagged full-length human DYRK1B recombinant proteins and His-tagged full-length human DYRK2 recombinant proteins were obtained from Life Technologies and Millipore, respectively. The kinase reaction was performed in a reaction mixture containing serially diluted inhibitors, 10 mM MOPS-KOH (pH 7.0), 10 mM magnesium acetate, 200 μM EDTA, 1 μM ATP, 0.1–0.4 μCi [γ-^32P]ATP, 5 μM DYRKtide and 0.1–1 μg recombinant kinase, for a final volume of 25 μl. The final concentration of DMSO was adjusted to 1%, regardless of the inhibitor concentration. The reaction mixture was incubated at 30 °C for 10 min and phosphoric acid (final 5%) was then added to stop the reaction. We then dispensed 25 μl of the reaction mixture onto P81, a phosphocellulose membrane (Whatman, GE Healthcare), and washed four times in 5% phosphoric acid. Cherenkov light from the incorporated ^32P was measured using a liquid scintillation counter. The kinase assay conditions, including the incubation period and the concentration of the kinases and substrates, were optimized to maintain linearity during the incubation. The net radioactivity was determined by subtracting the background count from the reaction mixture without kinase, and the data were expressed as a percentage of the control sample containing the solvent.
The amount of incorporated ^32P was calculated from the standard line. The Km, Ki and Vmax values were calculated with Prism5 software (GraphPad Software) using the competitive inhibition model.

[8] = molecular target: T5, human DYRK1B (Homo sapiens, UniProt Q9Y463); assay: RI-in vitro kinase assay with DYRKtide; type: biochemical
T5 construct: GST-tagged full-length human DYRK1B recombinant proteins; GST; purchased Life Technologies
T5 sequence (Q9Y463 whole entry): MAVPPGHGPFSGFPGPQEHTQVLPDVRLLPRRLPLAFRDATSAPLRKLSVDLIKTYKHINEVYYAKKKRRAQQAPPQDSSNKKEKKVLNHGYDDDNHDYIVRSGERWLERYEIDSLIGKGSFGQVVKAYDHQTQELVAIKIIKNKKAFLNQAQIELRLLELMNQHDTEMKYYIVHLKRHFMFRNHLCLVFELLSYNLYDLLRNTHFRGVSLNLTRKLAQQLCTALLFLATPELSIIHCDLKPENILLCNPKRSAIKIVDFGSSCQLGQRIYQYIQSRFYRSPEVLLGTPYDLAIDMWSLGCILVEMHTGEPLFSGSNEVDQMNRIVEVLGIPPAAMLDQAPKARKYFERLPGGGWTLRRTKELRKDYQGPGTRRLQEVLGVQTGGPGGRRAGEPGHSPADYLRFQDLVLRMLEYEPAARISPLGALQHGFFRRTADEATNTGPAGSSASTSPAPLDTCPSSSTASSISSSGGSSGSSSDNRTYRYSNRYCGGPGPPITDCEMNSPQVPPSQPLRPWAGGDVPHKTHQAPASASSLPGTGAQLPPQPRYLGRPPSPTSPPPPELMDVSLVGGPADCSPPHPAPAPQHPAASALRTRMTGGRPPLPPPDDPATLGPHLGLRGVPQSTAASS
Protocol: as §1

[9] = molecular target: T6, FLAG-DYRK1A (Homo sapiens, UniProt Q13627); assay: 2A peptide bicistronic FLAG-DYRK1A/HA-EGFP expression in HEK293 cells, western blot; type: cell-based
T6 construct: F2A peptide (remnant left on the upstream protein after ribosome skipping) (C); expressed in transfected cells; host or cells: HEK293 (Flp-In/T-REx), vector stably integrated
Protocol: After incubation for 5 h, total cell lysates were subjected to SDS–PAGE followed by western blot analysis using the corresponding antibodies against FLAG, HA and GAPDH. Representative data from the pentaplicate experiments are shown. […] Representative data from the triplicate experiments are shown. […] Total cell lysates were subjected to SDS–PAGE followed by western blot analysis. Representative data from the triplicate experiments are shown.

[10] = molecular target: T2, DYRK1A; settings: PURExpress
Protocol: The PURExpress kit (New England Biolabs) was employed. DYRK1A was expressed at 37 °C for 40 min in a 12.5-μl reaction mixture containing 30 ng of pET28a(+)-FLAG-DYRK1A. […] For immunoprecipitation, 100 μl of PBS containing 0.5% Empigen BB, 0.5 mg ml^−1 BSA and 5 mM EDTA was added into the reaction mixture, then incubated with anti-FLAG (M2) beads at 4 °C for 6 h. The samples were prepared with an SDS-urea buffer, then analysed with SDS–PAGE followed by western blot (Supplementary Fig. 14). The band intensities were measured using the LAS-3000 (Fujifilm) and Multi Gauge software (Fujifilm).

[11] = molecular target: T2, DYRK1A; settings: DYRKtide, 100 μM ATP; up to 32 μM compound
Protocol: For the in vitro kinase assay, 0.5 μl of the reaction mixture was incubated in a total volume of 25 μl of AR buffer containing 0.1 mg ml^−1 of BSA, 100 μM of ATP, 50 μM of DYRKtide peptide (Anaspec) and the indicated concentrations of the small molecules for 2 h at 37 °C. The consumption of ATP was measured with ADP-Glo Kinase Assay kit (Promega Corporation).

[12] = molecular target: T3, 3xFLAG-DYRK1A / CDC37-nanoKAZ; settings: 24 h treatment; dose-dependent; 293T
Protocol: The wells were wash three times with ice-cold HENG buffer and then a luminescence assay was performed. […] The luminescence intensity was recorded at 0.1 s intervals for 10 s or 10 min. […] The relative amount of protein bound on the well was estimated from the absorbance.

[13] = molecular target: GST-DYRK1A-TS Y319E mutant (Homo sapiens, UniProt Q13627, Y319E); assay: biochemical; settings: ATP 100 μM
Protocol: The cells were cultured with IPTG (final 1 mM) for 24 h at 6 °C, then lysed with GET buffer (20 mM HEPES-KOH, pH 8.0, 150 mM NaCl, 1 mM EDTA, 2 mM dithiothreitol, 10% glycerol, 0.5% Empigen BB, 0.5% Triton X-100). Clarified cell lysates were loaded onto a Strep-Tactin Sepharose column (IBA) and the bound proteins were then eluted with GET buffer containing 2.5 mM desthiobiotin (IBA) and 1 mg ml^−1 BSA. The eluates were subsequently applied to GST-Accept resin (Nacalai Tesque). The resin was washed extensively, first with GET buffer, then with AR buffer (5 mM MOPS, pH7.2, 2.5 mM β-glycerol-phosphate, 5 mM MgCl2, 1 mM EGTA, 0.4 mM EDTA, 2 mM tris(2-carboxyethyl)phosphine). […] We then added 5 μl of 2 mg ml^−1 BSA to the suspension (final concentration of 0.1 mg ml^−1), followed by incubation at 37 °C for 30 min. […] The bound proteins were eluted with SDS-urea buffer, then analysed with SDS–PAGE followed by western blot (Supplementary Fig. 14).
The band intensities were measured using the ChemiDoc MP Imaging System (Bio-Rad). In Fig. 6d,e, the relative activity of the phosphorylation was calculated from the ATP-dependent increase in the intensity of the p-Ser97 and p-Tyr signals by subtracting the band intensity in the absence of ATP from that in the presence of ATP.

[14] = molecular target: GST-DYRK1A-TS WT (Homo sapiens, UniProt Q13627); assay: biochemical
Protocol: (§4) For the in vitro kinase assay, 2 μl (bed vol.) of the resin was incubated in a total volume of 25 μl of AR buffer containing 0.1 mg ml^−1 of BSA, 100 μM of ATP, 50 μM of DYRKtide peptide and the indicated concentrations of the small molecules, for 2 h at 37 °C. The consumption of ATP was measured with ADP-Glo Kinase Assay kit.

[15] = molecular target: GST-DYRK1A-TS Y319E (Homo sapiens, UniProt Q13627, Y319E); assay: biochemical
Protocol: as §4

[16] = system: DYRK1A; assay: Rescue of Xenopus laevis embryos injected with DYRK1A mRNA; type: in vivo; settings: 2.5 μM
Excerpt: (§2) Uninjected embryos were used as controls. Development of the embryos was allowed to proceed to stage 40 in the dark. Representative images are shown. […] The results are the means±s.e.m. of triplicate experiments (n=55). (c) RT–PCR analysis of the neural marker genes in the head regions of the embryos at stage 25. Each of the marker genes indicates a specific region: NCAM for the pan-neural region, Brain Factor-1 (BF-1) for the forebrain, Pax-6 and Rx-1 for the eye, Otx-2 for the fore-midbrain, Engrailed-2 (En-2) for the mid-hindbrain and Krox-20 for the hindbrain. Ornithine decarboxylase (ODC) is an internal control.
(§3) DYRK1A and DYRK1B mRNA, which were synthesized from linearized vectors with the mMessage mMachine Kit (Life Technologies), were injected into two dorsal blastomeres at the eight-cell-stage for RT–PCR analysis and observation of the embryo phenotypes. […] The head regions of the injected embryos were dissected at the neural stage (stage 25) and the total RNA was isolated using TRIzol (Life Technologies). cDNA synthesis was carried out using Moloney murine leukaemia virus reverse transcriptase (Life Technologies). The sequences of the primer pairs were as follows[51][52]: NCAM, 5′-[…]-3′ and 5′-[…]-3′; Brain factor 1 (BF-1), 5′-[…]-3′ and 5′-[…]-3′; Pax-6, 5′-[…]-3′ and 5′-[…]-3′; Rx1, 5′-[…]-3′ and 5′-[…]-3′; Otx-2, 5′-[…]-3′ and 5′-[…]-3′; En-2, 5′-[…]-3′ and 5′-[…]-3′′; Krox-20, 5′-[…]-3′ and 5′-[…]-3′; ornithine decarboxylase (ODC), 5′-[…]-3′ and 5′-[…]-3′. No randomization was used, and no blinding was done.

[17] = system: DYRK1B; assay: Rescue of Xenopus laevis embryos injected with DYRK1B mRNA; type: in vivo; settings: 2.5 μM
Excerpt: as §2, §3

For `CCN1/C(=C/C(C)=O)Sc2ccc(O)cc21` [INDY], the pIC50 [1] was 7.56, the “TAU phosphorylation in Tc 2” value ([2]; 10 μM, compound added after accumulation of mature DYRK1A, HEK293) was “suppressed” and the “TAU phosphorylation in Tc 1” value ([2]; 10 μM, compound added before doxycycline induction, HEK293) was “suppressed”. The “interaction between DYRK1A and CDC37-nanoKAZ” value [3] was “weakened”.
In the case of `CC1(C(=O)O)C2CCC(O2)C1(C)C(=O)O` (stereo not shown) [cantharidic acid], the “p-Ser97 signal in FLAG-DYRK1A” value [4] was “increased”.
For `Brc1c(Br)c(Br)c2[nH]nnc2c1Br` [TBB, 4,5,6,7-tetrabromo-1H-benzotriazole], the “inhibition of the mature kinase (Drosophila DYRK2)” value [5] is listed as “inhibited by both”.
With `C=C1[C@@H](O)[C@@H]2O[C@]3(CC[C@H](/C=C/[C@@H](C)[C@@H]4CC(C)=C[C@@]5(O[C@H](C[C@@](C)(O)C(=O)O)CC[C@H]5O)O4)O3)CC[C@H]2O[C@@H]1[C@@H](O)C[C@H](C)[C@H]1O[C@@]2(CCCCO2)CC[C@H]1C` [okadaic acid] the “p-Ser97 signal in FLAG-DYRK1A” value [4] was “did not increase”.
In the case of `CC(C)[C@H](CO)Nc1nc(Nc2cccc(Cl)c2)c2ncn(C(C)C)c2n1` [Purvalanol A], the “inhibition of the transitional intermediate of Drosophila DYRK2” value [6] is listed as “inhibited” and the “inhibition of the mature kinase (Drosophila DYRK2)” value [5] is listed as “inhibited by both”.
In the case of `COC[C@@H]([C@H](O)[C@H](O)C(=O)NCC[C@H](C)c1nc(/C=C/C[C@@H]2O[C@]3(C[C@@H](O)[C@@H]2C)O[C@H]([C@H](C[C@H](O)[C@H](C)[C@H](O)[C@H](C)/C=C(C)/C(C)=C/C=C/C(C)=C\C#N)OC)[C@H](OP(=O)(O)O)C3(C)C)co1)N(C)C` [calyculin A], the “p-Ser97 signal in FLAG-DYRK1A” value [4] was “did not increase”.
Compound `CCOc1cc(/C=C2\SC(=S)NC2=O)ccc1O` [RD0392] has a pKi [7] of 6.88, a pIC50 ([7]; IC50, in vitro kinase activity of recombinant DYRK1A, Fig. 1f, n=4) of 7.22 and a pIC50 ([7]; IC50, kinase activity of recombinant DYRK1A, Supplementary Fig. 13d, n=3) of 7.59. The pIC50 [8] was 7.27, the pIC50 [1] was 7.34 and the “amount of FLAG-DYRK1A (destabilization)” value [9] was “did not decrease”. For the same compound, the “signal from phosphorylated tyrosine in in vitro translation” value [10] was “no significant effects”, the “Ser97 autophosphorylation in in vitro translation” value ([10]; compound added prior to transcription) was “suppressed” and the “substrate phosphorylation by DYRK1A produced in PURExpress” value [11] was “inhibited”. For the same compound, the “interaction between DYRK1A and CDC37-nanoKAZ” value [12] was “weakened”, the pIC50 ([13]; IC50, Ser97 autophosphorylation) was 6.69 and the pIC50 ([13]; IC50, tyrosine phosphorylation) was 6.29. For the same compound, the pIC50 [14] was 6.49, the pIC50 [15] was 6.09 and the “TAU phosphorylation in HEK293 cells” value ([2]; Supplementary Fig. 2b) was “suppresses”.
With `CCN1/C(=C/C(C)=O)Sc2ccc(OC(C)=O)cc21` [proINDY] the “rescue of embryos injected with DYRK1A mRNA (small eyes)” value ([16]; Fig. 9b) was “almost completely rescued”, the “expression of neural marker genes in DYRK1A-overexpressing embryos” value ([16]; RT-PCR, stage 25 head regions) was “increased” and the “developmental malformation induced by DYRK1A” value ([16]; stage 40 tadpoles) was “repressed”. For the same compound, the “tadpoles developed normally when injected with DYRK1B mRNA” value ([17]; Fig. 9b) was 89.1%, the “expression of neural marker genes in DYRK1B-overexpressing embryos” value ([17]; RT-PCR, stage 25 head regions) was “increased” and the “developmental malformation induced by DYRK1B” value ([17]; stage 40 tadpoles) was “repressed”.
